How the values were obtained:
[1] = test system: A549/ATCC; experiment: NCI cytotoxicity screen, Non-Small Cell Lung Cancer panel; assay type: cell-based; settings: Homo sapiens; A549/ATCC; single dose 10 µM; negative = lethal; read-out: Percent growth inhibition
Method: (§1) Cytotoxicity was performed at National Cancer Institute (NCI), Bethesda, USA as per their protocols.

[2] = test system: EXVX; experiment: as above; assay type: cell-based; settings: Homo sapiens; EXVX; single dose 10 µM; negative = lethal; read-out: Percent growth inhibition
Method: as §1

[3] = test system: HOP-62; experiment: as above; assay type: cell-based; settings: Homo sapiens, single dose 10 µM, negative = lethal, read-out: Percent growth inhibition
Method: as §1

[4] = test system: NCI-H460; experiment: as above; assay type: cell-based; settings: Homo sapiens, single dose 10 µM, negative = lethal, read-out: Percent growth inhibition
Method: as §1

[5] = test system: COLO 205; experiment: NCI cytotoxicity screen, Colon Cancer panel; assay type: cell-based; settings: Homo sapiens, single dose 10 µM, negative = lethal, read-out: Percent growth inhibition
Method: as §1

[6] = test system: HCT-116; experiment: NCI cytotoxicity screen, Colon Cancer panel; assay type: cell-based; settings: Homo sapiens, single dose 10 µM, negative = lethal, read-out: Percent growth inhibition
Method: as §1

[7] = test system: HCT-15; experiment: NCI cytotoxicity screen, Colon Cancer panel; assay type: cell-based; settings: Homo sapiens, single dose 10 µM, negative = lethal, read-out: Percent growth inhibition
Method: as §1

[8] = test system: HT29; experiment: NCI cytotoxicity screen, Colon Cancer panel; assay type: cell-based; settings: Homo sapiens, HT-29; HT29; single dose 10 µM; negative = lethal; read-out: Percent growth inhibition
Method: as §1

[9] = test system: SF-268; experiment: NCI cytotoxicity screen, CNS Cancer panel; assay type: cell-based; settings: Homo sapiens, single dose 10 µM, negative = lethal, read-out: Percent growth inhibition
Method: as §1

[10] = test system: SF-295; experiment: NCI cytotoxicity screen, CNS Cancer panel; assay type: cell-based; settings: Homo sapiens, single dose 10 µM, negative = lethal, read-out: Percent growth inhibition
Method: as §1

[11] = test system: SF-539; experiment: NCI cytotoxicity screen, CNS Cancer panel; assay type: cell-based; settings: Homo sapiens, single dose 10 µM, negative = lethal, read-out: Percent growth inhibition
Method: as §1

[12] = test system: SNB-19; experiment: NCI cytotoxicity screen, CNS Cancer panel; assay type: cell-based; settings: Homo sapiens; SNB-19; single dose 10 µM; negative = lethal; read-out: Percent growth inhibition
Method: as §1

[13] = test system: SNB-75; experiment: NCI cytotoxicity screen, CNS Cancer panel; assay type: cell-based; settings: Homo sapiens, single dose 10 µM, negative = lethal, read-out: Percent growth inhibition
Method: as §1

[14] = test system: U251; experiment: NCI cytotoxicity screen, CNS Cancer panel; assay type: cell-based; settings: Homo sapiens, U-251; U251; single dose 10 µM; negative = lethal; read-out: Percent growth inhibition
Method: as §1

[15] = test system: OVCAR-3; experiment: NCI cytotoxicity screen, Ovarian Cancer panel; assay type: cell-based, human; settings: Homo sapiens; OVCAR-3; single dose 10 µM; negative = lethal; read-out: Percent growth inhibition
Method: as §1

[16] = test system: 786-0; experiment: NCI cytotoxicity screen, Renal Cancer panel; assay type: cell-based, human; settings: Homo sapiens, single dose 10 µM, negative = lethal, read-out: Percent growth inhibition
Method: as §1

[17] = test system: TK-10; experiment: NCI cytotoxicity screen, Renal Cancer panel; assay type: cell-based, human; settings: Homo sapiens, single dose 10 µM, negative = lethal, read-out: Percent growth inhibition
Method: as §1

[18] = test system: A498; experiment: NCI cytotoxicity screen, Renal Cancer panel; assay type: cell-based; settings: Homo sapiens, single dose 10 µM, negative = lethal, read-out: Percent growth inhibition
Method: as §1

[19] = test system: HOP-92; experiment: NCI cytotoxicity screen, Non-Small Cell Lung Cancer panel; assay type: cell-based; settings: Homo sapiens, single dose 10 µM, negative = lethal, read-out: Percent growth inhibition
Method: as §1

Row | SMILES | inhibition at 10 µM [1] | inhibition at 10 µM [2] | inhibition at 10 µM [3] | inhibition at 10 µM [4] | inhibition at 10 µM [5] | inhibition at 10 µM [6] | inhibition at 10 µM [7] | inhibition at 10 µM [8] | inhibition at 10 µM [9] | inhibition at 10 µM [10] | inhibition at 10 µM [11] | inhibition at 10 µM [12] | inhibition at 10 µM [13] | inhibition at 10 µM [14] | inhibition at 10 µM [15] | inhibition at 10 µM [16] | inhibition at 10 µM [17] | inhibition at 10 µM [18] | inhibition at 10 µM [19]
1 | c1ccc2c(-c3cn4ccnc4c(-c4ccc5c(c4)ncn5C4CCCCC4)n3)cccc2c1 [Compound 12, 8-(1-cyclohexyl-1H-benzo[d]imidazol-5-yl)-6-(naphthalen-1-yl)imidazo[1,2-a]pyrazine] | 36.2% | 29.6% | 13.2% | 7.35% | < 1% | 23.7% | 15.3% | 16.5% | 11.8% | 7.88% | 7.72% | 16.7% | 9.15% | 27.9% | 4.29% | 13.3% | 5.82% | < 1% | 
2 | COc1ccc(-c2cn3ccnc3c(-c3ccc4c(c3)ncn4C3CCCCC3)n2)cc1 [Compound 10, 8-(1-cyclohexyl-1H-benzo[d]imidazol-5-yl)-6-(4-methoxyphenyl)imidazo[1,2-a]pyrazine] | 7.33% | 7.85% | 3.33% | 2.9% | < 1% | 18.6% | 11.9% | < 1% | 3.96% | 12.5% | 9.71% | 4.26% | 15.9% | 3.4% | < 1% | 12.7% | < 1% | < 1% | 17.4%
3 | Fc1ccc(-c2cn3ccnc3c(-c3ccc4c(c3)ncn4C3CCCCC3)n2)cc1 [Compound 13, 8-(1-cyclohexyl-1H-benzo[d]imidazol-5-yl)-6-(4-fluorophenyl)imidazo[1,2-a]pyrazine] | 8.95% | < 1% | 13.2% | < 1% | < 1% | 6.58% | 4.85% | 8.33% | 5.13% | < 1% | < 1% | < 1% | < 1% | 3.57% | < 1% | 3.12% | < 1% |  | 7.05%
4 | c1ccc(-c2cn3ccnc3c(-c3ccc4c(c3)ncn4C3CCCCC3)n2)cc1 [Compound 9, 8-(1-cyclohexyl-1H-benzo[d]imidazol-5-yl)-6-phenylimidazo[1,2-a]pyrazine] | 9% | 2.51% | 12.9% | < 1% | 0.28% | 3.81% | 19.1% | 9.21% | 1.33% | < 1% | 2.17% | 1.72% | 5.65% | 4.44% | < 1% | 8.24% | < 1% | < 1% | 10.9%
5 | c1cn2cc(-c3ccc4c(c3)ncn4C3CCCCC3)nc(-c3ccc4c(c3)ncn4C3CCCCC3)c2n1 [Compound 30, 6,8-bis(1-cyclohexyl-1H-benzo[d]imidazol-5-yl)imidazo[1,2-a]pyrazine] | 4.93% | 9.56% | 20.8% | 1.35% | < 1% | 15.9% | 26% | 28.1% | 4.85% | 10.4% | 25.4% | 5.02% | 6.25% | 29.7% | < 1% | 13.9% | < 1% | < 1% | 
6 | c1cn2cc(-c3ccsc3)nc(-c3ccc4c(c3)ncn4C3CCCCC3)c2n1 [Compound 14, 8-(1-cyclohexyl-1H-benzo[d]imidazol-5-yl)-6-(thiophen-3-yl)imidazo[1,2-a]pyrazine] | < 1% | < 1% | 7.41% | 7.12% | < 1% | 15.8% | 18.8% | 9.2% | 5.01% | < 1% | 2.82% | 3.96% | < 1% | 30.2% | < 1% | < 1% | < 1% | < 1% | 25%
7 | c1csc(-c2cn3ccnc3c(-c3ccc4c(c3)ncn4C3CCCCC3)n2)c1 [Compound 22, 8-(1-cyclohexyl-1H-benzo[d]imidazol-5-yl)-6-(thiophen-2-yl)imidazo[1,2-a]pyrazine] | 1.63% | 3.54% | 0.44% | < 1% | < 1% | < 1% | 6.48% | < 1% | 2.5% | < 1% | < 1% | < 1% | < 1% | < 1% | 0.91% | 0.59% | < 1% |  | < 1%
